Source: publication PMC7915527, “Development of a Liquid Chromatography/Mass Spectrometry-Based Inhibition Assay for the Screening of Steroid 5-α Reductase in Human and Fish Cell Lines” (Molecules, 2021)
Values joined by “and” are separate entries in the source; they are usually repeats but may differ in a detail not shown here. Equal entries are not always repeated. Where two headings read alike, the source gives them in different places.

Assays:
SRD5A1 = molecular target: T1, SRD5A1 (Homo sapiens, UniProt P18405); experiment: Cell-based 5AR activity/inhibition assay in HEK-293 cells transiently overexpressing SRD5A1; conditions: IC50 Value, SRD5A1-overexpressing HEK-293 cells; testosterone at KM, 3 h; 95% CI in parentheses
T1 sequence (P18405 1-259): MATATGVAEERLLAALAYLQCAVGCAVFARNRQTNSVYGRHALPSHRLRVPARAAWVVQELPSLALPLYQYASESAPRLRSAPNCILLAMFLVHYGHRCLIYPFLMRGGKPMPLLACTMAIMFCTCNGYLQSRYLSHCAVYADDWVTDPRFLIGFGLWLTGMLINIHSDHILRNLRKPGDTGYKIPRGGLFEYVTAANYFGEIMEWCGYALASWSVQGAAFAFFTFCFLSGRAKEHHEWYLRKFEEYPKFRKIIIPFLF
Procedure: (§1) For the calculation of KM, testosterone was added in increments of 0 to 50 µM to non-vector- and SRD5A1-HEK293 cells and in increments of 0 to 10 µM to SRD5A2-HEK293 cells 24 h after transfection. The DHT levels were measured (Figure 4a). […] The IC50 values were calculated (Table 3).
(§2) Transient overexpression was induced using transfection of cDNA with lipofectamine (Thermo Fisher Scientific, Waltham, MA, USA). HEK-293 cells were seeded in 24-well plates at a density of 10^5 cells per well and incubated at 37 °C in an atmosphere of 5% CO2. After overnight culture, 500 ng of cDNA and 0.75 µL of the Lipofectamine 3000 reagent were diluted in the Opti-MEM medium and incubated for 15 min for DNA-lipid complex formation. The DNA-lipid complex was added to the wells and incubated for 6 h. After incubation, the sample-treated medium was changed to the complete culture medium and incubated for 18 h.
(§3) All cells were seeded on a 24-well plate. The seeding densities of the DU-145, LNCaP, and SW-13 cells were 0.5 × 10^5 cells per well. The ZFL and RTG-2 cells were seeded at densities of 1.0 × 10^5 cells and 2.0 × 10^5 cells, respectively. […]
(§4) The extracts were analyzed for DHT via ultra-performance LC-MS/MS (Agilent 1200/6460C QQQMSD coupled Jet Stream technology electrospray ion (ESI) source; Agilent Technologies, Santa Clara, CA, USA). […]

[1] = molecular target: rat and human 5α-reductase; parameters: method as in PMID 14753249, PMID 8645628, PMID 7734404, PMID 9605412, PMID 16818707; conditions: ref [14],[43],[44],[45],[46],[47]; cited from earlier work
5AR in RTG-2 cells = experiment: Cell-based 5AR activity/inhibition assay in rainbow trout gonad cells (RTG-2)
Procedure: (§5) For the calculation of KM for optimized assay conditions, ZFL and RTG-2 cells were treated with testosterone in increments of 0 to 50 µM. The DHT levels were measured (Figure 5a). Based on the calculated KM values, inhibition assays were conducted (Figure 5b).
(§6) HEK-293, LNCaP, DU-145, SW-13, and ZFL cell lines were obtained from the American Type Culture Collection (ATCC; Manassas, VA, USA) and cultured according to their instructions. The HEK-293 cells were cultured in a high-glucose DMEM that contained 10% FBS, 100 units/mL penicillin, and 100 µg/mL streptomycin. The DU-145 cells were cultured in EMEM that contained 10% FBS, 100 units/mL penicillin, and 100 µg/mL streptomycin. The LNCaP cells were cultured in RPMI 1640 that contained 10% FBS, 100 units/mL penicillin, and 100 µg/mL streptomycin at 37 °C in 5% CO2. SW-13 cells were cultured in Leibovitz’s L-15 medium with 10% FBS at 37 °C without CO2. ZFL cells were cultured in a complete medium that was composed of 50% L-15, 35% DMEM medium, and 15% F12 medium that contained […] sodium bicarbonate, 15 mM HEPES, 0.01 mg/mL bovine insulin, 50 ng/mL mouse EGF, 5% FBS, and 0.5% trout serum at 28 °C without CO2. RTG-2 cells were obtained from Prof. Kristin Schirmer (EAWAG, Switzerland) and cultured in the L-15 medium with 5% FBS, 100 units/mL penicillin, and 100 µg/mL streptomycin at 20 °C without CO2.
(§7) All cells were seeded on a 24-well plate. The seeding densities of the DU-145, LNCaP, and SW-13 cells were 0.5 × 10^5 cells per well. The ZFL and RTG-2 cells were seeded at densities of 1.0 × 10^5 cells and 2.0 × 10^5 cells, respectively. After overnight culture, the culture media was aspirated from each well and treated with testosterone that was diluted in the complete medium for 3 h and 6 h. In the case of transiently transfected HEK-293 cells, the testosterone treatment was applied after transient overexpression under the same conditions as other cell lines. The treated media were collected from each well and centrifuged at 3000× g for 5 min at 4 °C. The supernatants were stored at −80 °C until needed. […] The seeding conditions of all cells were the same as those previously described. After overnight culture, the culture medium was aspirated, and the cells were cotreated with a medium that contained testosterone and inhibitors for 3 h. The medium was collected from each well and centrifuged at 3000× g for 5 min at 4 °C. The supernatants were stored at −80 °C until analysis.
A method that was modified by was used for DHT extraction from the samples. Each sample, which included the calibration, QC, and assay medium, was placed in 1.5 mL PP tubes and spiked with a 0.5 ng/mL DHT-D3 internal standard prior to extraction. All sample tubes were vortexed for 5 s, and the samples were extracted using a liquid-liquid extraction (LLE) method via the addition of 600 µL of MTBE. The samples were vortexed and centrifuged at 4500× g rpm for 5 min, and the organic phase was transferred into glass tubes. The extraction step was repeated once, and the organic phase extracts were dried under a stream of nitrogen. After the samples were dried, 100 µL of the derivatization reagent and 100 µL of TEA were added for DHT derivatization. […]
(§8) The extracts were analyzed for DHT via ultra-performance LC-MS/MS (Agilent 1200/6460C QQQMSD coupled Jet Stream technology electrospray ion (ESI) source; Agilent Technologies, Santa Clara, CA, USA).

5AR in ZFL cells = experiment: Cell-based 5AR activity/inhibition assay in zebrafish liver cells (ZFL)
Procedure: as §5, §6, §7
A method that was modified by was used for DHT extraction from the samples. […]
as §8

SRD5A2 = molecular target: T2, SRD5A2 (Homo sapiens, UniProt P31213); experiment: Cell-based 5AR activity/inhibition assay in HEK-293 cells transiently overexpressing SRD5A2; conditions: 95% CI in parentheses
T2 sequence (P31213 1-254): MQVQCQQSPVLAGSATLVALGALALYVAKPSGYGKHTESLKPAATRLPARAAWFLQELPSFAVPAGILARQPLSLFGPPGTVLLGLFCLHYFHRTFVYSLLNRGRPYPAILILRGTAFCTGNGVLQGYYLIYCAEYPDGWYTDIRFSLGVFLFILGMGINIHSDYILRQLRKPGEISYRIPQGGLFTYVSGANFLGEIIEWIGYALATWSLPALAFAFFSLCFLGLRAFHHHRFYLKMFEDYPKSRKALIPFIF
Procedure: as §1, §2, §3, §4

[2] = molecular target: T3, 5AR (SRD5A1) in DU-145 cells (Homo sapiens, UniProt P18405); conditions: DHT formation from testosterone 0 to 10 µM, 95% CI in parentheses
T3 sequence (P18405 1-259): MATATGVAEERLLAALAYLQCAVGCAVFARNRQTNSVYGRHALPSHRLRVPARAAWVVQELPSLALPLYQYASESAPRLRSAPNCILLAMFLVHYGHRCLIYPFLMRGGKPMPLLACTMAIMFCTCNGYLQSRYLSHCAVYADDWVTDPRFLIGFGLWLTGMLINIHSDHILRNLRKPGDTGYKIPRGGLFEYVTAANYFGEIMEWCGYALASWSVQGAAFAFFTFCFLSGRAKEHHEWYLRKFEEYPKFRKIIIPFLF

[3] = substrate: C[C@]12CC[C@H]3[C@@H](CCC4=CC(=O)CC[C@@]43C)[C@@H]1CC[C@@H]2O; experiment: cells, lysate or membranes; conditions: 95% CI in parentheses
[4] = read-out: IC50 Value, testosterone at KM, 3 h, 95% CI in parentheses
[5] = testosterone at KM, 3 h, 95% CI in parentheses, read-out: IC50 Value
[6] = testosterone 0 to 50 µM, 95% CI in parentheses
[7] = other: LNCaP cells, testosterone 0 to 10 µM
[8] = other: DU-145 cells, testosterone 0 to 10 µM
[9] = other: SRD5A1-HEK293 cells, testosterone 0 to 50 µM, 37.0 °C
[10] = other: SRD5A2-HEK293 cells, testosterone 0 to 10 µM, 37.0 °C

**Q.** Which IC50 (SRD5A1) does the source give for `C[C@]12C=CC(=O)N[C@@H]1CC[C@@H]1[C@@H]2CC[C@]2(C)[C@@H](C(=O)Nc3cc(C(F)(F)F)ccc3C(F)(F)F)CC[C@@H]12` [Dutasteride, dutasteride] here?
**A.** 1.27 nM

**Q.** And the IC50 [1]?
**A.** 0.2 to 7 nM

**Q.** And the IC50 (5AR in RTG-2 cells; [4])?
**A.** 13.2 nM

**Q.** What about the IC50 (5AR in ZFL cells; [4]) of the same molecule?
**A.** 7.33 nM

**Q.** And the IC50 (SRD5A2; IC50 Value, SRD5A2-overexpressing HEK-293 cells, testosterone at KM, 3 h)?
**A.** 1.19 nM

**Q.** Which IC50 (5AR in RTG-2 cells; testosterone at KM, 3 h, 95% CI in parentheses, listed as finasteride, read-out: IC50 Value) does the source give for `CC(C)(C)NC(=O)[C@H]1CC[C@H]2[C@@H]3CC[C@H]4NC(=O)C=C[C@]4(C)[C@H]3CC[C@]12C` [Finasteride, finasteride] here?
**A.** 2460 nM

**Q.** What about the IC50 (5AR in RTG-2 cells; [5]) of the same molecule?
**A.** 2670 nM

**Q.** What about the IC50 (5AR in ZFL cells; [5]) of the same molecule?
**A.** 142 nM

**Q.** Which Vmax [2] does the source give for `C[C@]12CC[C@H]3[C@@H](CCC4=CC(=O)CC[C@@]43C)[C@@H]1CC[C@@H]2O` [testosterone] here?
**A.** 75.55 nmol/L/h

**Q.** And the Km (5AR in RTG-2 cells; [6])?
**A.** 1.12 nM

**Q.** What about the Vmax (5AR in RTG-2 cells; [6]) of the same molecule?
**A.** 13.09 (11.88–14.37) nmol L^−1 h^−1

**Q.** What about the Km (5AR in ZFL cells; [6]) of the same molecule?
**A.** 0.46 nM

**Q.** And the Vmax (5AR in ZFL cells; [6])?
**A.** 116.6 nmol L^−1 h^−1 and 116.60 (106.9–126.9) nmol L^−1 h^−1

**Q.** What about the Vmax (SRD5A2; SRD5A2-HEK293 cells, testosterone 0 to 10 µM) of the same molecule?
**A.** 22.52 nmol/L/h

B1: 5AR (SRD5A1) in LNCaP cells (Homo sapiens) (protein)
chain: MATATGVAEERLLAALAYLQCAVGCAVFARNRQTNSVYGRHALPSHRLRVPARAAWVVQELPSLALPLYQYASESAPRLRSAPNCILLAMFLVHYGHRCLIYPFLMRGGKPMPLLACTMAIMFCTCNGYLQSRYLSHCAVYADDWVTDPRFLIGFGLWLTGMLINIHSDHILRNLRKPGDTGYKIPRGGLFEYVTAANYFGEIMEWCGYALASWSVQGAAFAFFTFCFLSGRAKEHHEWYLRKFEEYPKFRKIIIPFLF
**Q.** Which Km [3, 7] does the source give for B1 here?
**A.** 15.10 (12.35–19.25) nM

**Q.** What about the Vmax [3, 7] of the same molecule?
**A.** 0.000644 µM/min

B2: 5AR (SRD5A1) in DU-145 cells (Homo sapiens) (protein)
chain: MATATGVAEERLLAALAYLQCAVGCAVFARNRQTNSVYGRHALPSHRLRVPARAAWVVQELPSLALPLYQYASESAPRLRSAPNCILLAMFLVHYGHRCLIYPFLMRGGKPMPLLACTMAIMFCTCNGYLQSRYLSHCAVYADDWVTDPRFLIGFGLWLTGMLINIHSDHILRNLRKPGDTGYKIPRGGLFEYVTAANYFGEIMEWCGYALASWSVQGAAFAFFTFCFLSGRAKEHHEWYLRKFEEYPKFRKIIIPFLF
**Q.** For B2, which Km [3, 8] is on record?
**A.** 9.15 (7.01–12.81) nM

**Q.** What about the Vmax [3, 8] of the same molecule?
**A.** 0.00126 µM/min

B3: SRD5A1 (Homo sapiens) (protein)
chain: MATATGVAEERLLAALAYLQCAVGCAVFARNRQTNSVYGRHALPSHRLRVPARAAWVVQELPSLALPLYQYASESAPRLRSAPNCILLAMFLVHYGHRCLIYPFLMRGGKPMPLLACTMAIMFCTCNGYLQSRYLSHCAVYADDWVTDPRFLIGFGLWLTGMLINIHSDHILRNLRKPGDTGYKIPRGGLFEYVTAANYFGEIMEWCGYALASWSVQGAAFAFFTFCFLSGRAKEHHEWYLRKFEEYPKFRKIIIPFLF
**Q.** Which Km [3, 9] does the source give for B3 here?
**A.** 2.29 (1.70–3.09) nM

**Q.** And the Vmax [3, 9]?
**A.** 0.000143 µM/min

B4: SRD5A2 (Homo sapiens) (protein)
chain: MQVQCQQSPVLAGSATLVALGALALYVAKPSGYGKHTESLKPAATRLPARAAWFLQELPSFAVPAGILARQPLSLFGPPGTVLLGLFCLHYFHRTFVYSLLNRGRPYPAILILRGTAFCTGNGVLQGYYLIYCAEYPDGWYTDIRFSLGVFLFILGMGINIHSDYILRQLRKPGEISYRIPQGGLFTYVSGANFLGEIIEWIGYALATWSLPALAFAFFSLCFLGLRAFHHHRFYLKMFEDYPKSRKALIPFIF
**Q.** For B4, which Km [3, 10] is on record?
**A.** 0.36 (0.18–0.65) nM

**Q.** What about the Vmax [3, 10] of the same molecule?
**A.** 0.000375 µM/min
